Test results reported in patent US12352767B2, “Method of treating cognitive decline associated with neurological diseases based on a decrease in FLT4 expression or activity” (University of Virginia Patent Foundation, priority 2018, dated 2025).

System: Ly6GnegCD45+CD11b+ brain myeloid cells
Assay: Single cell RNA-seq of brain myeloid cells (microglia) of WT and 5xFAD mice (Table 6, Table 7)
Format: in vivo
Parameters: key to Rel. Expr. 5xFAD Vis. + photo: HS-Q7 / Rel. Expr. 5xFAD Vis. + photo: Axl / Rel. Expr. 5xFAD Vis.: Ctdnep1 / Rel. Expr. 5xFAD Vis. + photo: Ctdnep1 / Rel. Expr. 5xFAD Vis.: Fabp5 / Rel. Expr. 5xFAD Vis. + photo: Fabp5 / Rel. Expr. 5xFAD Vis.: Nampt / Rel. Expr. 5xFAD Vis. + photo: Nampt / Rel. Expr. 5xFAD Vis. + photo: Tfdp1 / Rel. Expr. 5xFAD Vis. + photo: Hspb11 / Rel. Expr. 5xFAD Vis.: Tyrobp / Rel. Expr. 5xFAD Vis. + photo: Tyrobp / Rel. Expr. 5xFAD Vis. + photo: Tpt1 / Rel. Expr. 5xFAD Vis.: Fth1 / Rel. Expr. 5xFAD Vis. + photo: Fth1 / Rel. Expr. 5xFAD Vis. + photo: Eef1a1 / Rel. Expr. 5xFAD Vis.: Lgals3bp / Rel. Expr. 5xFAD Vis. + photo: Lgals3bp / Rel. Expr. 5xFAD Vis.: Ifitm3 / Rel. Expr. 5xFAD Vis. + photo: Ifitm3 / Rel. Expr. 5xFAD Vis.: Atp5h / Rel. Expr. 5xFAD Vis. + photo: Atp5h / Rel. Expr. 5xFAD Vis.: Fau / Rel. Expr. 5xFAD Vis. + photo: Fau / Rel. Expr. 5xFAD Vis.: Ftl1 / Rel. Expr. 5xFAD Vis. + photo: Ftl1 / Rel. Expr. 5xFAD Vis.: H2-K1 / Rel. Expr. 5xFAD Vis. + photo: H2-K1 / Rel. Expr. 5xFAD Vis. + photo: Tmsb4x / Rel. Expr. 5xFAD Vis. + photo: Uba52 / Rel. Expr. WT Vis.: Hexb / Rel. Expr. 5xFAD Vis.: Hexb / Rel. Expr. WT Vis.: Lgmn / Rel. Expr. 5xFAD Vis.: Lgmn / Rel. Expr. 5xFAD Vis. + photo: Rtp4 / Rel. Expr. 5xFAD Vis.: Lpl / Rel. Expr. 5xFAD Vis. + photo: Lpl: A “+” refers to relative upregulation of gene expression for the noted conditions; A “-” refers to relative downregulation of gene expression for the noted conditions
Procedure: Effects of meningeal ablation on gene expression were studied in 5×FAD mice. Single cell RNA-seq of brain myeloid cells from 4 months old wild type (WT) and 5×FAD mice were injected with Visudyne alone (Vis., functional meningeal lymphatics) or injected with Visudyne and subjected to transcranial photoconversion (Vis.+photo., ablated meningeal lymphatics). Meningeal lymphatic ablation step was performed twice within a span of 3 weeks and brain myeloid cells were isolated 3 weeks after the last step. Data were obtained from sorted live Ly6G^negCD45^+CD11b^+ brain myeloid cells pooled from 3 mice per group (FIGS. 14A-B). Unsupervised clustering of brain myeloid single cells using t-distributed Stochastic Neighbor Embedding (t-SNE) plotted by group (FIG. 14A) or by distinct cell cluster (FIG. 14B). Frequency of cells from each cluster within the total 354, 487 and 308 cells from WT Vis., 5×FAD Vis. and 5×FAD Vis.+photo. groups, respectively (FIG. 14C). Genes involved in the acquisition of the disease-associated microglia phenotype, depicting the homeostatic, TREM2-independent and TREM2-dependent signatures within each cell were depicted in a heatmap (FIG. 14D). Cells are grouped by cluster and genes are grouped by signature (FIG. 14D). Upset plots were generated for all cells (FIG. 14E) or cluster 1 cells (FIG. 14F) showing the overlap in differentially expressed genes for comparisons between 5×FAD Vis. or 5×FAD Vis.+photo. and WT Vis. […] Expression values are averaged across cells within each group. Normalized enrichment score for GSEA pathways were obtained by Fisher's exact test with Benjamini-Hochberg corrections for the 24 differentially expressed genes in cluster 1 is shown in FIG. 14H. Enrichment analysis was performed in R using the clusterProfiler package. Depicted in FIG. 14I is a heatmap showing the mean-centered average log normalized expression of each gene contributing to the core-enrichment of the “Lysosome” GSEA pathway. Expression values are averaged across cells within each group. All scales show mean-centered, log-normalized expression values.

[1] = 5xFAD mice, Visudyne + photoconversion, cluster 1 brain myeloid cells
[2] = 5xFAD mice, Visudyne alone, cluster 1 brain myeloid cells
[3] = WT mice, Visudyne alone, cluster 1 brain myeloid cells

verteporfin [Visudyne]
Rel. Expr. 5xFAD Vis. + photo: Atp5h [1]: +
Rel. Expr. 5xFAD Vis. + photo: Axl [1]: +
Rel. Expr. 5xFAD Vis. + photo: Ctdnep1 [1]: +
Rel. Expr. 5xFAD Vis. + photo: Eef1a1 [1]: +
Rel. Expr. 5xFAD Vis. + photo: Fabp5 [1]: +
Rel. Expr. 5xFAD Vis. + photo: Fau [1]: +
Rel. Expr. 5xFAD Vis. + photo: Fth1 [1]: +
Rel. Expr. 5xFAD Vis. + photo: Ftl1 [1]: +
Rel. Expr. 5xFAD Vis. + photo: H2-K1 [1]: +
Rel. Expr. 5xFAD Vis. + photo: HS-Q7 [1]: +
Rel. Expr. 5xFAD Vis. + photo: Hspb11 [1]: +
Rel. Expr. 5xFAD Vis. + photo: Ifitm3 [1]: +
Rel. Expr. 5xFAD Vis. + photo: Lgals3bp [1]: +
Rel. Expr. 5xFAD Vis. + photo: Lpl [1]: +
Rel. Expr. 5xFAD Vis. + photo: Nampt [1]: +
Rel. Expr. 5xFAD Vis. + photo: Rtp4 [1]: +
Rel. Expr. 5xFAD Vis. + photo: Tfdp1 [1]: +
Rel. Expr. 5xFAD Vis. + photo: Tmsb4x [1]: +
Rel. Expr. 5xFAD Vis. + photo: Tpt1 [1]: +
Rel. Expr. 5xFAD Vis. + photo: Tyrobp [1]: +
Rel. Expr. 5xFAD Vis. + photo: Uba52 [1]: +
Rel. Expr. 5xFAD Vis.: Atp5h [2]: +
Rel. Expr. 5xFAD Vis.: Ctdnep1 [2]: +
Rel. Expr. 5xFAD Vis.: Fabp5 [2]: +
Rel. Expr. 5xFAD Vis.: Fau [2]: +
Rel. Expr. 5xFAD Vis.: Fth1 [2]: +
Rel. Expr. 5xFAD Vis.: Ftl1 [2]: +
Rel. Expr. 5xFAD Vis.: H2-K1 [2]: +
Rel. Expr. 5xFAD Vis.: Hexb [2]: +
Rel. Expr. 5xFAD Vis.: Ifitm3 [2]: +
Rel. Expr. 5xFAD Vis.: Lgals3bp [2]: +
Rel. Expr. 5xFAD Vis.: Lgmn [2]: +
Rel. Expr. 5xFAD Vis.: Lpl [2]: +
Rel. Expr. 5xFAD Vis.: Nampt [2]: +
Rel. Expr. 5xFAD Vis.: Tyrobp [2]: +
expression of genes of the GSEA lysosome pathway (Table 7, FIG. 14I) (5xFAD mice, Visudyne with photo ablation, brain myeloid cells): relatively downregulated
expression of 24 genes (Table 6) in cluster 1 brain myeloid cells, 5xFAD Vis.+photo. vs WT Vis. (Visudyne + photoconversion twice within 3 weeks): significantly different
expression of 24 genes (Table 6) in cluster 1 brain myeloid cells, 5xFAD Vis. vs WT Vis. (Visudyne alone, no photoconversion): not significantly different
Rel. Expr. WT Vis.: Hexb [3]: +
Rel. Expr. WT Vis.: Lgmn [3]: +
